Assay results: PubChem BioAssay AID248 (DTP/NCI, 2004)
Several values for one entry are separate records, joined by “and”; a condition that tells them apart may be missing. Identical values can stand only once. Inconclusive results and toxic doses are left out. No stated cut-off is given here; in the data, active means T/C of 150% or more; inactive means T/C below 125%.

System: L1210 leukemia ip in BDF1 mice, survival T/C
Assay: NCI In Vivo Anticancer Drug Screen. Data for tumor model L1210 Leukemia (intraperitoneal) in B6D2F1 (BDF1) mice
Conditions: higher = longer survival
How it was run: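 Read-out is survival time, reported as the treated-group measurement over the vehicle-control measurement.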

Measured: T/C

C[C@@H]1C[C@@H]([C@H](O)CC2CC(=O)NC(=O)C2)C(=O)[C@@H](C)C1
inactive: endpoint: mean survival time, dose: 1.5 mg/kg/injection, schedule: Q01DX009 (ip), vehicle: saline with Tween-80 109 % of control | endpoint: mean survival time, dose: 4.31 mg/kg/injection, schedule: Q01DX Z (ip), vehicle: carboxymethylcellulose (CMC) 104 % of control | endpoint: mean survival time, dose: 5.0 mg/kg/injection, schedule: Q01DX010 (ip), vehicle: saline 103 % of control and 107 % of control | endpoint: mean survival time, dose: 7.5 mg/kg/injection, schedule: Q01DX Z (ip), vehicle: carboxymethylcellulose (CMC) 97 % of control and 100 % of control | endpoint: mean survival time, dose: 8.63 mg/kg/injection, schedule: Q01DX Z (ip), vehicle: carboxymethylcellulose (CMC) 102 % of control | endpoint: mean survival time, dose: 10.0 mg/kg/injection, schedule: Q01DX009 (ip), vehicle: acetone 106 % of control | endpoint: mean survival time, dose: 10.0 mg/kg/injection, schedule: Q01DX010 (ip), vehicle: saline 104 % of control and 108 % of control | endpoint: mean survival time, dose: 12.5 mg/kg/injection, schedule: Q01DX Z (ip), vehicle: carboxymethylcellulose (CMC) 108 % of control | endpoint: mean survival time, dose: 15.0 mg/kg/injection, schedule: Q01DX009 (ip), vehicle: Klucel (hydroxypropylcellulose) (HPC) 114 % of control | endpoint: mean survival time, dose: 15.0 mg/kg/injection, schedule: Q01DX009 (ip), vehicle: saline 123 % of control | endpoint: mean survival time, dose: 15.0 mg/kg/injection, schedule: Q01DX Z (ip), vehicle: carboxymethylcellulose (CMC) 108 % of control and 116 % of control | endpoint: mean survival time, dose: 16.0 mg/kg/injection, schedule: Q01DX015 (ip), vehicle: saline 119 % of control | endpoint: mean survival time, dose: 17.25 mg/kg/injection, schedule: Q01DX Z (ip), vehicle: carboxymethylcellulose (CMC) 103 % of control | endpoint: mean survival time, dose: 18.0 mg/kg/injection, schedule: Q01DX015 (ip), vehicle: saline 119 % of control | endpoint: mean survival time, dose: 20.0 mg/kg/injection, schedule: Q01DX009 (ip), vehicle: acetone 119 % of control | endpoint: mean survival time, dose: 20.0 mg/kg/injection, schedule: Q01DX010 (ip), vehicle: saline 110 % of control and 114 % of control | endpoint: mean survival time, dose: 24.3 mg/kg/injection, schedule: Q02DX010 (ip), vehicle: carboxymethylcellulose (CMC) 97 % of control | endpoint: mean survival time, dose: 25.0 mg/kg/injection, schedule: Q01DX Z (ip), vehicle: carboxymethylcellulose (CMC) 106 % of control | endpoint: mean survival time, dose: 25.0 mg/kg/injection, schedule: Q02DX010 (ip), vehicle: other 112 % of control | endpoint: mean survival time, dose: 27.0 mg/kg/injection, schedule: Q01DX015 (ip), vehicle: saline 107 % of control | endpoint: mean survival time, dose: 30.0 mg/kg/injection, schedule: Q01DX009 (ip), vehicle: Klucel (hydroxypropylcellulose) (HPC) 113 % of control | endpoint: mean survival time, dose: 30.0 mg/kg/injection, schedule: Q01DX009 (ip), vehicle: saline with Tween-80 121 % of control | endpoint: mean survival time, dose: 30.0 mg/kg/injection, schedule: Q04DX003 (ip), vehicle: Klucel (hydroxypropylcellulose) (HPC) 108 % of control | endpoint: mean survival time, dose: 32.0 mg/kg/injection, schedule: Q## X004 (ip), vehicle: saline 97 % of control | endpoint: mean survival time, dose: 34.5 mg/kg/injection, schedule: Q01DX Z (ip), vehicle: carboxymethylcellulose (CMC) 121 % of control | endpoint: mean survival time, dose: 36.0 mg/kg/injection, schedule: Q01DX015 (ip), vehicle: saline 115 % of control | endpoint: mean survival time, dose: 37.5 mg/kg/injection, schedule: Q02DX008 (ip), vehicle: saline 108 % of control | endpoint: mean survival time, dose: 38.0 mg/kg/injection, schedule: Q02DX010 (ip), vehicle: other 120 % of control | endpoint: mean survival time, dose: 40.0 mg/kg/injection, schedule: Q01DX010 (ip), vehicle: saline 109 % of control and 116 % of control | endpoint: mean survival time, dose: 42.0 mg/kg/injection, schedule: Q## X032 (ip), vehicle: saline 113 % of control | endpoint: mean survival time, dose: 44.0 mg/kg/injection, schedule: Q01DX001 (ip), vehicle: saline 103 % of control | endpoint: mean survival time, dose: 45.0 mg/kg/injection, schedule: Q01DX Z (ip), vehicle: methylcellulose (MC) 106 % of control | endpoint: mean survival time, dose: 45.0 mg/kg/injection, schedule: Q04DX003 (ip), vehicle: saline 106 % of control | endpoint: mean survival time, dose: 48.0 mg/kg/injection, schedule: Q## X004 (ip), vehicle: saline 96 % of control | endpoint: mean survival time, dose: 50.0 mg/kg/injection, schedule: Q01DX Z (ip), vehicle: carboxymethylcellulose (CMC) 118 % of control | endpoint: mean survival time, dose: 56.0 mg/kg/injection, schedule: Q02DX008 (ip), vehicle: saline 115 % of control | endpoint: mean survival time, dose: 60.0 mg/kg/injection, schedule: Q01DX009 (ip), vehicle: saline 102 % of control | endpoint: mean survival time, dose: 60.0 mg/kg/injection, schedule: Q01DX Z (ip), vehicle: methylcellulose (MC) 106 % of control | endpoint: mean survival time, dose: 60.0 mg/kg/injection, schedule: Q04DX003 (ip), vehicle: Klucel (hydroxypropylcellulose) (HPC) 122 % of control | endpoint: mean survival time, dose: 64.0 mg/kg/injection, schedule: Q## X032 (ip), vehicle: saline 106 % of control and 110 % of control | endpoint: mean survival time, dose: 67.0 mg/kg/injection, schedule: Q01DX001 (ip), vehicle: saline 115 % of control | endpoint: mean survival time, dose: 72.0 mg/kg/injection, schedule: Q## X004 (ip), vehicle: saline 112 % of control | endpoint: mean survival time, dose: 80.0 mg/kg/injection, schedule: Q01DX001 (ip), vehicle: alkali diluted with saline 107 % of control | endpoint: mean survival time, dose: 81.0 mg/kg/injection, schedule: Q01DX015 (ip), vehicle: saline 123 % of control | endpoint: mean survival time, dose: 85.5 mg/kg/injection, schedule: Q02DX010 (ip), vehicle: other 117 % of control | endpoint: mean survival time, dose: 90.0 mg/kg/injection, schedule: Q01DX009 (ip), vehicle: saline 97 % of control | endpoint: mean survival time, dose: 90.0 mg/kg/injection, schedule: Q04DX003 (ip), vehicle: saline 101 % of control | endpoint: mean survival time, dose: 96.0 mg/kg/injection, schedule: Q## X032 (ip), vehicle: saline 106 % of control and 115 % of control | endpoint: mean survival time, dose: 100.0 mg/kg/injection, schedule: Q01DX001 (ip), vehicle: saline 114 % of control | endpoint: mean survival time, dose: 100.0 mg/kg/injection, schedule: Q01DX009 (ip), vehicle: saline with Tween-80 100 % of control | endpoint: mean survival time, dose: 100.0 mg/kg/injection, schedule: Q01DX Z (ip), vehicle: carboxymethylcellulose (CMC) 117 % of control | endpoint: mean survival time, dose: 100.0 mg/kg/injection, schedule: Q04DX003 (ip), vehicle: saline with Tween-80 112 % of control | endpoint: mean survival time, dose: 108.0 mg/kg/injection, schedule: Q## X004 (ip), vehicle: saline 106 % of control | endpoint: mean survival time, dose: 120.0 mg/kg/injection, schedule: Q01DX001 (ip), vehicle: alkali diluted with saline 106 % of control | endpoint: mean survival time, dose: 120.0 mg/kg/injection, schedule: Q01DX009 (ip), vehicle: Klucel (hydroxypropylcellulose) (HPC) 96 % of control | endpoint: mean survival time, dose: 120.0 mg/kg/injection, schedule: Q01DX009 (ip), vehicle: saline with Tween-80 116 % of control | endpoint: mean survival time, dose: 126.0 mg/kg/injection, schedule: Q02DX008 (ip), vehicle: saline 112 % of control | endpoint: mean survival time, dose: 128.25 mg/kg/injection, schedule: Q02DX010 (ip), vehicle: other 74 % of control | endpoint: mean survival time, dose: 144.0 mg/kg/injection, schedule: Q## X032 (ip), vehicle: saline 118 % of control and 123 % of control | endpoint: mean survival time, dose: 162.0 mg/kg/injection, schedule: Q## X004 (ip), vehicle: saline 110 % of control | endpoint: mean survival time, dose: 180.0 mg/kg/injection, schedule: Q01DX001 (ip), vehicle: alkali diluted with saline 103 % of control | endpoint: mean survival time, dose: 180.0 mg/kg/injection, schedule: Q04DX003 (ip), vehicle: saline 97 % of control | endpoint: mean survival time, dose: 189.0 mg/kg/injection, schedule: Q02DX008 (ip), vehicle: saline 114 % of control | endpoint: mean survival time, dose: 200.0 mg/kg/injection, schedule: Q04DX003 (ip), vehicle: saline with Tween-80 103 % of control | endpoint: mean survival time, dose: 216.0 mg/kg/injection, schedule: Q## X032 (ip), vehicle: saline 113 % of control and 117 % of control | endpoint: mean survival time, dose: 240.0 mg/kg/injection, schedule: Q04DX003 (ip), vehicle: Klucel (hydroxypropylcellulose) (HPC) 116 % of control | endpoint: mean survival time, dose: 320.0 mg/kg/injection, schedule: Q## X032 (ip), vehicle: saline 110 % of control | endpoint: median survival time, dose: 25.0 mg/kg/injection, schedule: Q04DX003 (ip), vehicle: alkali diluted with saline 103 % of control | endpoint: median survival time, dose: 50.0 mg/kg/injection, schedule: Q04DX003 (ip), vehicle: alkali diluted with saline 106 % of control | endpoint: median survival time, dose: 100.0 mg/kg/injection, schedule: Q04DX003 (ip), vehicle: alkali diluted with saline 103 % of control | endpoint: median survival time, dose: 200.0 mg/kg/injection, schedule: Q04DX003 (ip), vehicle: alkali diluted with saline 106 % of control
